Laboratory results as given in US20230312639A1, “GPER PROTEOLYTIC TARGETING CHIMERAS” (University of Iowa Research Foundation, priority 2020, published 2023).
Residues, ends and D or L forms follow the SMILES beside them. *: point of attachment. Cbz = O=C(OCc1ccccc1)*

Assays:
HiBiT-GPER = HiBiT-GPER (Homo sapiens, UniProt Q99527); assay: Nano-BiT binary luminescence complementation, transfected HEK-293 cells, total receptor; assay type: cell-based; conditions: for effect on UI-EP001 / UI-EP002 degradation of HiBiT-GPER: 100 µM UI-EP001 or UI-EP002, 1 hour, MG132 10 µM, chloroquine 100 µM, E2 or aldosterone 100 nM-100 µM
Method: FIG. 26. […] HEK-293 cells (ERα^-, GPER^-) were transiently transfected with 50 ng HiBiT-GPER or HiBiT-ER plus pcDNA3.1(+) zeo carrier plasmid. […] (C) Histogram depicting total HiBiT-GPER and HiBiT-ER following a 1-hour treatment at […] drug or control. […] Results shown represent the mean ± S.E. of three independent experiments.
(§1) FIG. 28. […] Total receptor was then measured by binary luminescence complementation in detergent-permeabilized cells. […] Total receptor was then quantified by binary luminescence complementation. Representative luminescence data and mean values and SDs derived from three independent experiments are shown.
(§2) Transient transfections and binary Nano-Bit ™ luminescence assays. Total HiBiT-tagged GPER or ER estrogen receptors were detected in detergent-permeabilized cells by binary luminescence complementation with recombinant LgBit and substrate using the Nano-Glo HiBiT Extracellular Detection system kit (Promega Corporation, Madison, Wl). In brief, HEK293 cells (0.75 × 10^6) were seeded in 35 mm tissue culture dishes and 24 hours later were transiently transfected with 50 ng of HiBiT-GPER or HiBiT-ERa and 950 ng of pcDNA3.1(+) zeo carrier plasmid using Lipofectamine 2000 (Invitrogen, Carlsbad, CA). The next day transfected cells were harvested by trypsinization and seeded at a density of 10^4 cells/well in 96-well poly-L-lysine-coated Greiner white-bottomed microplates. On the following day, cell culture media was aspirated and replaced with 100 µL of serum-free PRF-DF12 containing E2-PROTAC, partial-PROTAC, or vehicle at various concentrations and for indicated time intervals at 37° C. […] Following treatment, total HiBiT-tagged receptor was measured in cells which were permeabilized in 0.05% Triton X-100 using HiBiT complementation reagent consisting of LgBiT protein and Nano-Gio® HiBiT substrate. Luminescence was measured using the Infinite 200 PRO multimode microplate reader from Tecan (Raleigh, NC) and reported as Relative Luminescent Units (RLU). All samples were measured in triplicate and expressed as the mean value plus or minus standard deviation.

HiBiT-ERα = molecular target: T1, HiBiT-ERα (Homo sapiens, UniProt P03372); assay: as above; assay type: cell-based; conditions: for effect on UI-EP001 / UI-EP002 degradation of HiBiT-ERα: 100 µM UI-EP001 or UI-EP002, 1 hour, MG132 10 µM, chloroquine 100 µM, E2 or aldosterone 100 nM-100 µM
T1 sequence (P03372 1-595): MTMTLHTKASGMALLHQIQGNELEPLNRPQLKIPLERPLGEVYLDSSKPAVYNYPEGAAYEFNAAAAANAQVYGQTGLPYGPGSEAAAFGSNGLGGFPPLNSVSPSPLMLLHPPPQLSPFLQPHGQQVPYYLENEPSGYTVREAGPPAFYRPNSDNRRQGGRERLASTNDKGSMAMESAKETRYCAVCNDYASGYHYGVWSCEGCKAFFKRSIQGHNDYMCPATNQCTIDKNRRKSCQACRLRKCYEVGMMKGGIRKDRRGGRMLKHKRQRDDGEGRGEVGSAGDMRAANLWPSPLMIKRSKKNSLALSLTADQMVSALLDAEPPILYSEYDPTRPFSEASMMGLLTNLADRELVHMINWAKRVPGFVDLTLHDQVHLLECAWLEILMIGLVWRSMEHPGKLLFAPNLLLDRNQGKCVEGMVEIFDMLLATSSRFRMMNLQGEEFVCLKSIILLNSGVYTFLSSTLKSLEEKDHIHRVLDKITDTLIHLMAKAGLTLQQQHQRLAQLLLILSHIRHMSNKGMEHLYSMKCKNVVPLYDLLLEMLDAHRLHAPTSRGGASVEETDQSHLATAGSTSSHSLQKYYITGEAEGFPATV
Method: FIG. 26. […] HEK-293 cells (ERα^-, GPER^-) were transiently transfected with 50 ng HiBiT-GPER or HiBiT-ER plus pcDNA3.1(+) zeo carrier plasmid. […] Results shown represent the mean ± S.E. of three independent experiments.
as §1, §2

GPER [1] = molecular target: T2, GPER (Homo sapiens, UniProt Q99527); conditions: Filardo et al., 2007; cited from earlier work
GPER [2] = molecular target: T2, GPER; conditions: Filardo et al., 2007; cited from earlier work; remark: listed apart in the source
[3] = molecular target: T3, recombinant HA-tagged GPER (Homo sapiens, UniProt Q99527); assay: HA immunoblot of lysates of HEK293 cells stably expressing HA-tagged GPER; assay type: cell-based; conditions: various concentrations, 16 hr
T3 construct: expressed in transfected cells
Method: FIG. 38. […] HEK293 cells stably expressing recombinant HA-tagged GPER were treated with various concentrations of CIMBA-PROTAC-001 or partial PROTAC for 16 hr and then lysed in detergent. Equivalent amounts of protein lysate were resolved in SDS-polyacrylamide gels and then electrotransferred onto PVDF […] membranes. Membranes were probed with rabbit HA antibodies, top. HA- antibodies were stripped from the membrane at low pH and the membrane was then probed with […] transferrin receptor (TFNR) antibodies as a specificity and loading control.

ERα = molecular target: T4, ERα (Homo sapiens, UniProt P03372); assay: Immunostaining of endogenous receptors in MCF-7 cells; conditions: MCF-7, 1 hour
T4 sequence (P03372 1-595): T1 sequence (P03372 1-595)

GPER [4] = molecular target: T2, GPER; assay: as above; conditions: MCF-7, 1 hour
MCF-7 cells = assay: Cell cycle analysis, propidium iodide, flow cytometry; assay type: cell-based, human; conditions: MCF-7, 10 µM, 24 hours
Source text: (§3) FIG. 30. E2-PROTACs promote estrogen receptor-dependent G2/M arrest. E2-PROTAC induced G2/M arrest in human breast cancer cell lines expressing membrane and/or intracellular estrogen receptors. […] Fixed cells were permeabilized and dyed with propidium iodide (PI). Cell cycle data were acquired on a flow cytometer and analyzed using Flow-Jo software. Data are expressed as mean ± SEM (n=3). The percentage of cells in each phase were plotted using Prism 8.0.
(§4) Cell cycle analysis. […] Following treatment, cells were harvested by trypsinization and washed twice in ice-cold PBS. Cells were then fixed in 70% ethanol at 4° C. for 30 minutes. Fixed cells were pelleted by centrifugation at 230 g for 5 minutes and the cell pellet was incubated in Krishan’s solution (3.8 mM sodium citrate (Fisher Scientific), 0.014 mM propidium iodide (AnaSpec, Fermont, Ca), 1% NP-40 (Sigma) and 2.0 mg/mL RNase A (Fisher Scientific)) for 30 minutes at 37° C. Cells were then centrifuged and washed in PBS prior to analysis using a FacScallibur flow cytometer. The data from flow cytometry were subjected to further analysis by CellQuest software version 3.3. DNA histograms generated indicate the fractions of the cell population in the sub-G1, G0-G1, S, or G2/M phase of the cell cycle.
(§5) To investigate the biological effect associated with decreased cell viability, cell cycle analysis was performed on the same four cell lines using propidium iodide staining and measured by flow cytometry 24 hours after treatment of cells with 10 µM E2-PROTAC or partial PROTAC (FIG. 30).

SKBR3 cells = assay: as above; assay type: cell-based, human; conditions: SKBR3, 10 µM, 24 hours
Source text: as §3, §4, §5

HCC1806 cells = assay: as above; assay type: cell-based, human; conditions: HCC1806, 10 µM, 24 hours
Source text: as §3, §4, §5

GPER [5] = molecular target: T2, GPER; assay: Competitive binding assay in intact SKBR3 cells with E2-FITC as fluoro-tracer (flow cytometry); parameters: endogenous in cells; host or cells: SKBR3 human breast carcinoma cells (ATCC); conditions: concentrations as high as 10 mM
ERβ = ERβ (Homo sapiens, UniProt Q92731); assay: Immunostaining of endogenous receptors in MCF-7 cells; conditions: MCF-7, 1 hour
ERs (ERa and ERb) = assay: Fluorescence polarization competitive binding with E2-FITC in cytosolic fractions from MCF-7 cells; parameters: species or system human
Method: ER binding was measured using cytosolic fractions prepared from MCF-7 cells by fluorescence polarization. MCF-7 (10^6 cells) were detached in EDTA, cell homogenates were prepared using a Dounce homogenizer and subcellular fractions were isolated by differential centrifugation as previously described (Filardo et al, 2002). The protein concentration of each fraction was determined by bichinchoninic acid (BCA) assay (Pierce ™ BCA protein assay kit, Thermo Fisher). For saturation binding assay of the probe, different concentrations of cytosolic fraction were diluted in assay buffer (10 mM Tris-HCl, pH 7.4; 50 mM KCl, 10% glycerol, 0.1 mM dithiothreitol (DTT), 1 ug/mL BGG, 10 nM protease inhibitor cocktail (Roche) to a final volume of 200 uL containing 10 nM Ez-FITC. The mixture was incubated at ambient temperature for 1 hour and interaction of the probe with cytosolic protein was determined by fluorescence polarization (FP). For competitive binding assay, an aliquot of cytosolic fraction and E2-FITC (10 nM final concentration) was mixed and incubated at 4° C. for 1 hour. Then different concentrations of drugs and controls were added to the mixture. The mixture was incubated for an additional hour and then subjected to FP. All samples were measured in triplicate. Negative controls (only cytosolic fraction or only E2-FITC) and positive control (E2-FITC and cytosolic fraction at 100% binding without treatment) were included. Relative binding affinities were expressed as the percentage of FP recorded from treated wells compared to the positive control. FP values in millipolarization units (mP) were measured at ex/em wavelength of 485 nm/530 nm respectively using the Spectra Max plus 384 Microplate Spectrophotometer (Molecular Devices, Sunnyvale, CA) in 96-well, black, flat-bottom microplates (Greiner Bio-One North America, Inc., Monroe, NC). Kd values of the probe were determined by nonlinear regression fitting of the saturation curves, while IC50 values of treatment were determined by nonlinear regression fitting of the competition curves.
In contrast to GPER, ERa and ERb are intracellular receptors that are concentrated in the cytoplasm and in the nucleus. […] A saturation analysis was performed using 10 nM E2-FITC and increasing concentrations of cytosolic protein (FIG. 25D).

[6] = increasing doses, 1 hour, partial PROTAC 100 µM

T2 sequence (Q99527 whole entry): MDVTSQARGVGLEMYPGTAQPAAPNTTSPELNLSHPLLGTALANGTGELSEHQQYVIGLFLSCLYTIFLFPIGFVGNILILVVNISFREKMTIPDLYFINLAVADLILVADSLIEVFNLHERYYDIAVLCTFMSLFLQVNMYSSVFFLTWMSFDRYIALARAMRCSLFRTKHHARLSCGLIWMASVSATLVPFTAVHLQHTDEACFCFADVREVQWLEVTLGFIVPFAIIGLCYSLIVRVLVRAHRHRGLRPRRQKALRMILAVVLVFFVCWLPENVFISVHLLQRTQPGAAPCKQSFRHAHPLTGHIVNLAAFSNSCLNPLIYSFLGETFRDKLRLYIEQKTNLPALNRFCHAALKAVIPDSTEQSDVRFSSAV
Sequence of HiBiT-GPER (Q99527 whole entry): as above
T3 sequence (Q99527 whole entry): as above
Sequence of ERβ (Q92731 whole entry): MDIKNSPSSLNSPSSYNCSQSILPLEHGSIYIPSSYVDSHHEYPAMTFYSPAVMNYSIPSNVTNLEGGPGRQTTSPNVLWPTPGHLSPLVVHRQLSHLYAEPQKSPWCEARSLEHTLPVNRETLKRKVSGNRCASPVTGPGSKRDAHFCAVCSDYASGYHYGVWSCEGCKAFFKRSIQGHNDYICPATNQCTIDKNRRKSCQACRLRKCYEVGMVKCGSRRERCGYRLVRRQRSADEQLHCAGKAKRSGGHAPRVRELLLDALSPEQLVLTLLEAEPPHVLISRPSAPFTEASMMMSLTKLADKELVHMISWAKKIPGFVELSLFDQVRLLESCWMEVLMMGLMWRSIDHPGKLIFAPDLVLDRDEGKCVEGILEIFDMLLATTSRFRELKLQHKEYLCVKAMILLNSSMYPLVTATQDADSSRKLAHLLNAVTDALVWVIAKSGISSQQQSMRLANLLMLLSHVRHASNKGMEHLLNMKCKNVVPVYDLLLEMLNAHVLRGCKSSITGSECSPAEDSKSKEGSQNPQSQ

CCN(CC)CCCC(C)Nc1ccnc2cc(Cl)ccc12 (stereo not drawn) [chloroquine, chloroquine diphosphate]
effect on UI-EP001 / UI-EP002 degradation of HiBiT-GPER (HiBiT-GPER): had no such effect

C[C@]12CCC(=O)C=C1CC[C@@H]1[C@@H]2[C@@H](O)C[C@]2(C=O)[C@@H](C(=O)CO)CC[C@@H]12 [aldosterone]
effect on UI-EP001 / UI-EP002 degradation of HiBiT-ERα (HiBiT-ERα): not aldosterone was capable of blocking
effect on UI-EP001 / UI-EP002 degradation of HiBiT-GPER (HiBiT-GPER): not aldosterone was capable of blocking

C[C@]12CC[C@@H]3c4ccc(O)cc4C[C@@H](CCCCCCCCC[S+]([O-])CCCC(F)(F)C(F)(F)F)[C@H]3[C@@H]1CC[C@@H]2O (stereo partly drawn) [Fulvestrant]
relative binding activity (GPER [1]): 5%
concentration at which it functions as a GPER agonist (GPER [2]): 500 nM

COc1ccc(CNc2ccc(C(C)C)cc2N2CCN(C(=O)COCCOCCOCCOCC(=O)NC(C(=O)N3CC(O)CC3C(=O)NCc3ccc(-c4scnc4C)cc3)C(C)(C)C)CC2)cc1 (stereo not drawn) [CIMBA-PROTAC-001]
degradation of recombinant GPER [3]: degrades recombinant GPER

Cc1ncsc1-c1ccc(CNC(=O)C2CC(O)CN2C(=O)C(NC(=O)COCCOCCOCCOCC(=O)O)C(C)(C)C)cc1 (stereo not drawn) [Partial PROTAC, reference compound]
nuclear ERα expression (ERα): did not impact
intracellular GPER expression (GPER [4]): did not impact
cell cycle distribution (MCF-7 cells): much less significant shift
cell cycle distribution (SKBR3 cells): much less significant shift
cell cycle distribution (HCC1806 cells): much less significant shift
competition for E2-FITC binding (GPER [5]): unable to compete for E2-FITC binding
change of HiBiT-ERα (HiBiT-ERα; [6]): did not show any significant decrease
nuclear ERβ expression (ERβ): did not impact
receptor present after treatment (HiBiT-GPER; 100 µM, 8 hrs, recombinant receptor, GPER or ER not specified): 83%
change of HiBiT-GPER (HiBiT-GPER; [6]): did not show any significant decrease

CC(C)C[C@@H](C=O)NC(=O)[C@H](CC(C)C)NC(=O)[C@H](CC(C)C)NC(=O)OCc1ccccc1 [MG132] (Cbz-Leu-Leu-Leu-aldehyde)
effect on UI-EP001 / UI-EP002 degradation of HiBiT-ERα (HiBiT-ERα): reversed
effect on UI-EP001 / UI-EP002 degradation of HiBiT-GPER (HiBiT-GPER): reversed
